Measurements reported in patent publication US9212139B2, “Aryl substituted indoles and their use as blockers of sodium channels” (Purdue Pharma, L.P., priority 2010, dated 2015).
Where two headings read alike, the source gives them in different places.

Biological target: human Nav1.7 (Homo sapiens (Human), UniProt Q15858)
Assay: FLIPR or FLIPR TETRA sodium dye assay with KCl and test article pre-incubation
Type: cell-based
Excerpt: For dominant selection of the Nav1.7-expressing clones, the expression plasmid co-expressed the neomycin resistance gene. […] Recombinant beta and gamma subunits were not introduced into this cell line. Additional cell lines expressing recombinant Nav1.7 cloned from other species can also be used, alone or in combination with various beta subunits, gamma subunits or chaperones.
Cell maintenance: Unless otherwise noted, cell culture reagents were purchased from Mediatech of Herndon, Va. The recombinant Nav1.7/HEK293 cells were routinely cultured in growth medium consisting of Dulbecco's […] containing 10% fetal bovine serum (FBS, Hyclone, Thermo Fisher Scientific, Logan, Utah), 100 U/mL penicillin, […], 2-4 mM L-glutamine, and […]. For natural, non-recombinant cell lines, the selective antibiotic was omitted, and additional media formulations can be applied as needed.
The intensity of this emission, but not the wavelength range, is increased when the dye is exposed to Na^+ ions, which it can bind with partial selectivity. Cells expressing Nav1.7 or other sodium channels were loaded with the CoroNa™ Green dye immediately in advance of the fluorescence assay, and then, after agonist stimulation, the mobilization of Na^+ ions was detected as the Na^+ ions flowed from the extracellular fluid into the cytoplasm through the activated sodium channel pores. The dye was stored in the dark as a lyophilized powder, and then an aliquot was dissolved immediately before the cell loading procedure, according to the instructions of the manufacturer to a stock concentration of 10 mM in DMSO. It was then diluted in the assay buffer to a 4× concentrated working solution, so that the final concentration of dye in the cell loading buffer was 5 μM.
These scorpion toxins inhibit the fast inactivation of their cognate target channels. Stock solutions of the agonists were prepared to 40 mM in DMSO (veratridine) and 1 mg/mL in dH2O (scorpion venom), and then diluted to make a 4× or 2× stock (depending on the particular assay) in assay buffer, the final concentration being 100 μM (veratridine) and 10 μg/mL (scorpion venom). Both of the agonists were purchased from Sigma Aldrich, St. Louis, Mo.
Test Compounds: Test compounds were dissolved in DMSO to yield 10 mM stock solutions. […] If a particular test article appeared to be especially potent, then the concentration curve was adjusted, e.g., to 10-fold lower concentrations, in order to perform the dose-response in a more relevant concentration range. Compound dilutions were added during the dye-loading and pre-stimulation step, and then again during the fluorescence assay, early in the kinetic read.
Data Analysis: The data were analyzed according to methods known to those skilled in the art or using the GraphPad® Prism 4.0 Program (available from GraphPad Software, San Diego, Calif.) to determine the IC50 value for the test article. At least one standard reference compound was evaluated during each experiment.
FLIPR® or FLIPR^TETRA® sodium dye assay with KCl and test article pre-incubation: Cells were prepared by plating the recombinant HEK293 cells or other host cells expressing either recombinant or non-recombinant, native, Nav1.7 alpha subunit, alone or in combination with various beta and gamma subunits at a density of ˜40,000 cells/well into a 96-well black, clear-bottom, PDL-coated plate. The assay can be adapted to 384-well or 1,536-well format, if desired, using proportionately less cells and media. […] For counter-screens of other voltage-gated sodium channels, the procedure was very similar, though optimal densities of cells, media and subsequent assay components can be fine-tuned for the particular cell line or isoform.

[1] = sodium dye assay with KCl, recombinant human Nav1.7 in HEK293 cells, value ± SEM
[2] = read-out: FLIPR Nav1.7 IC50 (μM) ± SEM

Sequence of human Nav1.7 (Q15858 other isoform, or with tags, fused parts or gaps): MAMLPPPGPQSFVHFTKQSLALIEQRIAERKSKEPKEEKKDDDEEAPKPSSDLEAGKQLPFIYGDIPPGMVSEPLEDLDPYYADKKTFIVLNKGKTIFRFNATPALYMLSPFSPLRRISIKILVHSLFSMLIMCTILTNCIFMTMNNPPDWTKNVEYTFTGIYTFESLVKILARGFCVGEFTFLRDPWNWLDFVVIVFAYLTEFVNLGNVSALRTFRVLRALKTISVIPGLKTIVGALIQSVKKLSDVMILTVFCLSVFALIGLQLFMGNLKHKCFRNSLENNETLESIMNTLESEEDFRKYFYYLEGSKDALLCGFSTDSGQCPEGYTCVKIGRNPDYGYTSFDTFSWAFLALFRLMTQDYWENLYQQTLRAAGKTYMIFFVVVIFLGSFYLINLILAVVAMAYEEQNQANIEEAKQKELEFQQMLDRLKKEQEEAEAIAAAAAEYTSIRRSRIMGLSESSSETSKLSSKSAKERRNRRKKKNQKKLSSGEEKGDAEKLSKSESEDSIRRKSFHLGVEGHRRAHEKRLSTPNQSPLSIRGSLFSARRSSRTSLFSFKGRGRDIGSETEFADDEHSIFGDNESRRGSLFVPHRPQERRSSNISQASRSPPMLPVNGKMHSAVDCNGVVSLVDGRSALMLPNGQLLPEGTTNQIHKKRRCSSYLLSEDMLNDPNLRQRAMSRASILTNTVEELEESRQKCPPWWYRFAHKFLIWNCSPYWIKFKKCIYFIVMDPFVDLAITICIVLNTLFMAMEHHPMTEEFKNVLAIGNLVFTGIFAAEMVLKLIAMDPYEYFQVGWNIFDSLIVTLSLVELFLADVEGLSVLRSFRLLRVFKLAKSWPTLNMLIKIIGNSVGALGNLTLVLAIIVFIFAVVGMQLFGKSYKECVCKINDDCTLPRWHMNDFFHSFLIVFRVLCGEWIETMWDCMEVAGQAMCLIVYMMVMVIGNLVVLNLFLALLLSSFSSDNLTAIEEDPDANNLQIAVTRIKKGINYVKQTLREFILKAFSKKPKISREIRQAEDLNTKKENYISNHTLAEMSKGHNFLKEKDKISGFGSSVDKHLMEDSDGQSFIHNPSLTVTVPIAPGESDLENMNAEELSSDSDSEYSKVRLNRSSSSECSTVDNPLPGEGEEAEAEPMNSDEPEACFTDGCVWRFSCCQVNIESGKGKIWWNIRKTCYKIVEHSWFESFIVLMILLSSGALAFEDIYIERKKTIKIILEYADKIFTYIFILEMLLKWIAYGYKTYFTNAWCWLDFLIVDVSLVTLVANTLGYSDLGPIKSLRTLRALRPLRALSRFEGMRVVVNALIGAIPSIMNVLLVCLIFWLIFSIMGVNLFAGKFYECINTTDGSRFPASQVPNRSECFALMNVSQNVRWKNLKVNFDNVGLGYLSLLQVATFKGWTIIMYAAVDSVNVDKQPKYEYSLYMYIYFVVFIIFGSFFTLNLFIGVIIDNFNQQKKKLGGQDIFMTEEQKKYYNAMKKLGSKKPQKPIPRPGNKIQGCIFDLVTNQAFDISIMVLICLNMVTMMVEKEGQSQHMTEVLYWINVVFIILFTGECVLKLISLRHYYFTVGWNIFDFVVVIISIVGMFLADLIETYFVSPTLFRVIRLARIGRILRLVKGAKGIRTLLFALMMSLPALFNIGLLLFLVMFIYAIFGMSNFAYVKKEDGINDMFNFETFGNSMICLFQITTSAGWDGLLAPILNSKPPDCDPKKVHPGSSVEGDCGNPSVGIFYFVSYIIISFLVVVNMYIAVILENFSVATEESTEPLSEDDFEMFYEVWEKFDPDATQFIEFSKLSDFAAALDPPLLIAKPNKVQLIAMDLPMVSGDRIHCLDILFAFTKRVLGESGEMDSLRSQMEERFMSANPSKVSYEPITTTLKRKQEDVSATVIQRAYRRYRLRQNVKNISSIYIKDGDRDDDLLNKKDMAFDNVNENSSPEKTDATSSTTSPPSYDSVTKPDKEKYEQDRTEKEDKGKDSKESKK

SMILES | IC50 [1] | IC50 [2]
CCOC(=O)C(N)Cc1c[nH]c2ccc(-c3ccc(Oc4ccccc4)cc3)cc12 (stereo not drawn) [Compound 7, 2-Amino-3-[5-(4-phenoxyphenyl)-1H-indol-3-yl]propionic acid ethyl ester] | 0.481 ± 0.042 µM | 
NC(Cc1c[nH]c2ccc(-c3ccc(Oc4ccccc4)cc3)cc12)C(=O)O (stereo not drawn) [Compound 9, 2-Amino-3-[5-(4-phenoxyphenyl)-1H-indol-3-yl]propionic acid] | > 20 µM | 
NC(=O)C(N)Cc1c[nH]c2cc(-c3ccc(Oc4ccccc4)cc3)ccc12 (stereo not drawn) [Compound 15, 2-Amino-3-[6-(4-phenoxyphenyl)-1H-indol-3-yl]propionamide] | 2.05 ± 0.094 µM | 
CCOC(=O)C(Cc1c[nH]c2cc(-c3ccc(Oc4ccccc4)cc3)ccc12)NC(=O)OC(C)(C)C (stereo not drawn) [Compound 16, 2-tert-Butoxycarbonylamino-3-[6-(4-phenoxyphenyl)-1H-indol-3-yl]-propionic acid ethyl ester] | 2.52 ± 0.663 µM | 
CC(C)(C)OC(=O)NC(Cc1c[nH]c2cc(-c3ccc(Oc4ccccc4)cc3)ccc12)C(=O)O (stereo not drawn) [Compound 17, 2-tert-Butoxycarbonylamino-3-[6-(4-phenoxyphenyl)-1H-indol-3-yl]-propionic acid] | 1.93 ± 0.228 µM | 
NC(=O)C(N)Cc1c(-c2ccc(Oc3ccccc3)cc2)[nH]c2ccccc12 (stereo not drawn) [Compound 28, 2-Amino-3-[2-(4-phenoxyphenyl)-1H-indol-3-yl]propionamide] | 0.24 ± 0.023 µM | 
NC(Cc1cn(-c2ccc(Oc3ccccc3)cc2)c2ccccc12)C(=O)NCCO (stereo not drawn) [Compound 37, 2-Amino-N-(2-hydroxyethyl)-3-[1-(4-phenoxyphenyl)-1H-indol-3-yl]-propionamide] | 0.364 ± 0.112 µM | 
CS(=O)(=O)NC(Cc1cn(-c2ccc(Oc3ccccc3)cc2)c2ccccc12)C(N)=O (stereo not drawn) [Compound 39, 2-Methanesulfonylamino-3-[1-(4-phenoxyphenyl)-1H-indol-3-yl]propionamide] | 1.01 ± 0.162 µM | 
N#Cc1cc(Oc2ccc(-n3cc(C(O)CO)c4ccccc43)cc2)ccc1C(F)(F)F (stereo not drawn) [Compound 51, 5-{4-[3-(1,2-Dihydroxyethyl)-1H-indol-1-yl]phenoxy}-2-(trifluoromethyl)benzonitrile] |  | 0.26 ± 0.009 µM
N#Cc1ccc(Oc2ccc(-n3cc(C[C@H](O)CO)c4ccccc43)cc2)cc1 [Compound 76, (S)-4-(4-(3-(2,3-Dihydroxypropyl)-1H-indol-1-yl)phenoxy)benzonitrile] |  | 0.501 ± 0.089 µM
N#Cc1ccc(Oc2ccc(-n3cc(C[C@@H](O)CO)c4ccccc43)cc2)cc1 [Compound 77, (R)-4-(4-(3-(2,3-Dihydroxypropyl)-1H-indol-1-yl)phenoxy)benzonitrile] |  | 0.48 ± 0.087 µM
OC[C@@H](O)Cc1cn(-c2ccc(Oc3ccc(C(F)(F)F)cc3)cc2)c2ccccc12 [Compound 80, (S)-3-(1-(4-(4-(Trifluoromethyl)phenoxy)phenyl)-1H-indol-3-yl)propane-1,2-diol] | 0.524 ± 0.085 µM | 
OC[C@@H](O)Cc1cn(-c2ccc(Oc3ccc(C(F)(F)F)cn3)cc2)c2ccccc12 [Compound 83, (S)-3-(1-(4-((5-(Trifluoromethyl)pyridin-2-yl)oxy)phenyl)-1H-indol-3-yl)propane-1,2-diol] | 0.257 ± 0.067 µM | 
CN(c1ccc(F)cc1)S(=O)(=O)c1ccc(-n2cc(C[C@H](O)CO)c3ccccc32)cc1 [Compound 90, (S)-4-(3-(2,3-Dihydroxypropyl)-1H-indol-1-yl)-N-(4-fluorophenyl)-N-methylbenzenesulfonamide] | 0.865 ± 0.058 µM | 
O=S(=O)(Nc1ccc(F)cc1)c1ccc(-n2cc(C[C@H](O)CO)c3ccccc32)cc1 [Compound 92, (S)-4-(3-(2,3-Dihydroxypropyl)-1H-indol-1-yl)-N-(4-fluorophenyl)benzenesulfonamide] | 1.89 ± 0.164 µM | 
N#Cc1ccc2c(C[C@H](O)CO)cn(-c3ccc(Oc4ccc(F)cc4)cc3)c2c1 [Compound 105, (S)-3-(2,3-Dihydroxypropyl)-1-(4-(4-fluorophenoxy)phenyl)-1H-indole-6-carbonitrile] | 1.65 ± 0.438 µM | 
N#Cc1ccc2c(c1)c(C[C@H](O)CO)cn2-c1ccc(Oc2ccc(F)cc2)cc1 [Compound 110, (S)-3-(2,3-Dihydroxypropyl)-1-(4-(4-fluorophenoxy)phenyl)-1H-indole-5-carbonitrile] | 2.45 ± 0.542 µM | 
N#Cc1cccc2c(C[C@H](O)CO)cn(-c3ccc(Oc4ccc(F)cc4)cc3)c12 [Compound 115, (S)-3-(2,3-Dihydroxypropyl)-1-(4-(4-fluorophenoxy)phenyl)-1H-indole-7-carbonitrile] | 0.474 ± 0.133 µM | 
N#Cc1cccc2c1c(C[C@H](O)CO)cn2-c1ccc(Oc2ccc(F)cc2)cc1 [Compound 120, (S)-3-(2,3-Dihydroxypropyl)-1-(4-(4-fluorophenoxy)phenyl)-1H-indole-4-carbonitrile] | 0.262 ± 0.066 µM | 
NC(=O)c1ccc2c(C[C@H](O)CO)cn(-c3ccc(Oc4ccc(F)cc4)cc3)c2c1 [Compound 123, (S)-3-(2,3-Dihydroxypropyl)-1-(4-(4-fluorophenoxy)phenyl)-1H-indole-6-carboxamide] | 4.92 ± 0.822 µM | 
O=C(O)c1cccc2c1c(C[C@H](O)CO)cn2-c1ccc(Oc2ccc(F)cc2)cc1 [Compound 129, (S)-3-(2,3-Dihydroxypropyl)-1-(4-(4-fluorophenoxy)phenyl)-1H-indole-4-carboxylic acid] | 3.33 ± 0.495 µM | 
N#Cc1cc(Oc2ccc(-n3cc(C[C@@H](O)CO)c4c(C(O)CO)cccc43)cc2)ccc1C(F)(F)F (stereo partly drawn) [Compound 139, 5-(4-(4-(1,2-Dihydroxyethyl)-3-((R)-2,3-dihydroxypropyl)-1H-indol-1-yl)phenoxy)-2-(trifluoromethyl)benzonitrile] | > 20 µM | 
N#Cc1cc(Oc2ccc(-n3cc(C[C@H](O)CO)c4c(C(O)CO)cccc43)cc2)ccc1C(F)(F)F (stereo partly drawn) [Compound 141, 5-(4-(4-(1,2-Dihydroxyethyl)-3-((S)-2,3-dihydroxypropyl)-1H-indol-1-yl)phenoxy)-2-(trifluoromethyl)benzonitrile] | 1.97 ± 0.494 µM | 
NC(=O)c1nn(-c2ccc(Oc3ccccc3)cc2)c2ccccc12 [Compound 145, 1-(4-Phenoxyphenyl)-1H-indazole-3-carboxamide] |  | 0.326 ± 0.043 µM
O=C(NO)c1nn(-c2ccc(Oc3ccccc3)cc2)c2ccccc12 [Compound 146, N-Hydroxy-1-(4-phenoxyphenyl)-1H-indazole-3-carboxamide] |  | 8.07 ± 0.484 µM
OCc1cn(-c2ccc(Oc3ccc(C(F)(F)F)cc3)cc2)c2cnccc12 [Compound 164, (1-(4-(4-(Trifluoromethyl)phenoxy)phenyl)-1H-pyrrolo[2,3-c]pyridin-3-yl)methanol] | 0.345 ± 0.027 µM | 
N#Cc1ccc(Oc2ccc(-n3cc(C[C@H](O)CO)c4ccncc43)cc2)cc1 [Compound 170] | 1.38 ± 0.542 µM | 
CCN(CC)CCn1ccc2cc(-c3ccc(Oc4ccc(F)cc4)cc3)ccc21 [Compound 177, N,N-Diethyl-2-(5-(4-(4-fluorophenoxy)phenyl)-1H-indol-1-yl)ethanamine] |  | 0.895 ± 0.154 µM
CCN(CC)CCn1cc(C(=O)C(N)=O)c2cc(-c3ccc(Oc4ccc(F)cc4)cc3)ccc21 [Compound 178, 2-(1-(2-Diethylamino)ethyl-5-(4-(4-fluorophenoxy)phenyl)-1H-indol-3-yl)-2-oxoacetamide] |  | 1.03 ± 0.076 µM
CCN(CC)CCn1cc(C[C@H](O)CO)c2cc(-c3ccc(Oc4ccc(F)cc4)cc3)ccc21 [Compound 182] | 1.06 ± 0.026 µM | 
